# Laboratory results reported in patent US20030087316A1, “Diagnostic markers of liver dysfunction” (priority 2001, published 2003).
# “Also recorded” adds a separate entry of the source. Non-standard residues stand in square brackets, D forms with d. No end group written: not given here. *: point of attachment. pNA = O=[N+]([O-])c1ccc(N*)cc1
# Key:
# [1] = biological target: T1, C1s (Homo sapiens, UniProt P09871); test: Peptidase (amidolytic) activity of purified C1s, chromogenic substrate, 96-well plate, OD 405 nm; assay type: biochemical; conditions: Table 2; C1s 100 nM, substrate S2288; 60 min at 4° C. with LBTI 1 mg/ml, SBTI I mg/ml, aprotinin 0.075 mg/ml, benzamidine 50 mM or Futhan 0.1 mg/ml; % of total activity without inhibitor
# T1 construct: purchased Advanced Research Technologies (San Diego, Calif.)
# T1 sequence (P09871 438-688 limits assumed): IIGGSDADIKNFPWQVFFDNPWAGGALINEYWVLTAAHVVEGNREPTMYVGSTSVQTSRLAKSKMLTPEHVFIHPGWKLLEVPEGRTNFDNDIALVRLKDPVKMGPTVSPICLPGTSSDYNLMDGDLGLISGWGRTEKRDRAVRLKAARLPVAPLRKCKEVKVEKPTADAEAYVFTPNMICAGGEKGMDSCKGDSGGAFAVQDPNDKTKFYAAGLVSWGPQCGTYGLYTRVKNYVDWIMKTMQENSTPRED
# T1 sequence (P09871 16-437 partner limits assumed): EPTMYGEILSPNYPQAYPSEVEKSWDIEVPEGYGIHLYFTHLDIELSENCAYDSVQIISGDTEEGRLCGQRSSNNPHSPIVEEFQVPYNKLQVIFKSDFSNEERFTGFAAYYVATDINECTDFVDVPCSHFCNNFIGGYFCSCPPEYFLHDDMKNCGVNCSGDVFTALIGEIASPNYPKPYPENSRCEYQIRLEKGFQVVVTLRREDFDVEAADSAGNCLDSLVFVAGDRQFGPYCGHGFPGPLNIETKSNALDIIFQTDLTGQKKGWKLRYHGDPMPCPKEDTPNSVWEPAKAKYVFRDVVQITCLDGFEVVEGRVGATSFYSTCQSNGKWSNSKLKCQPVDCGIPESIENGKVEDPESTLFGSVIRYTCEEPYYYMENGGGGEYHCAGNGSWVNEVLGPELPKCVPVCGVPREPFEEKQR
# Method: (§1) The peptidase activity in plasma samples or of the purified enzymes were routinely determined at 37° C. in a 96-well plate. Each well contained 0.5 mM substrate in 100 μl of Tris-buffered saline (TBS)-EDTA buffer (50 mM Tris/150 mM NaCl/10 mM EDTA, pH 7.8) and the reaction was monitored using a microplate reader (Titertek Multiscan, Labsystems, Needham Heights, Mass.).
# (§2) The enzymes C1s (100 nM), plasm in (100 nM), thrombin (100 nM), plasma kallikrein (20 nM), β-FXIIa (100 nM), trypsin (16 nM) or LTR EDTA plasma samples were incubated for 60 min at 4° C. with TBS-EDTA buffer containing either LBTI (1 mg/ml), SBTI (I mg/ml), aprotinin (0.075 mg/ml), benzamidine (50 mM), or Futhan (0.1 mg/ml), before mixing with the substrate. EDTA plasma samples from LTR were diluted 10 or 20-fold with TBS-EDTA. The chromogenic substrate AGLTR-pNA was used for all enzymes and LTR samples except C1s where the substrate S2288 was used. Based on the initial rate of increase in OD at 405 nm, the residual free enzyme level was calculated and expressed as a percentage of total activity without inhibitor added.
# (§3) Ten-fold diluted normal EDTA plasma was added to each enzyme. The enzymes C1s (100 nM), plasmin (100 nM), thrombin (100 nM), plasma kallikrein (20 nM), β-FXIIa (100 nM), trypsin (16 nM) or LTR EDTA plasma samples were incubated for 60 min at 4° C. with TBS-EDTA buffer containing either C1INH (40 μg/ml), bdellin (50 μg/ml), hirudin (50 U/ml), PPACK 11(10 μM), or CTI (100 μg/ml), before adding the substrate. LTR samples were 10 or 20-fold diluted with TBS-EDTA. The chromogenic substrate AGLTR-pNA was used for all enzymes and LTP samples except C1s where the substrate S2288 was used. Based on the initial rate of increase in OD at 405 nm, the residual free enzyme was calculated and expressed as a percentage of total activity determined without inhibitor added.
# [2] = biological target: T2, plasmin (Homo sapiens, UniProt P00747); test: Peptidase (amidolytic) activity of purified plasmin, chromogenic substrate, OD 405 nm; assay type: biochemical; conditions: Table 2; plasmin 100 nM, substrate AGLTR-pNA; 60 min at 4° C. with LBTI 1 mg/ml, SBTI I mg/ml, aprotinin 0.075 mg/ml, benzamidine 50 mM or Futhan 0.1 mg/ml
# T2 construct: purchased Calbiochem-Novabiochem Corp (La Jolla, Calif.)
# T2 sequence (P00747 581-810 limits assumed, species assumed): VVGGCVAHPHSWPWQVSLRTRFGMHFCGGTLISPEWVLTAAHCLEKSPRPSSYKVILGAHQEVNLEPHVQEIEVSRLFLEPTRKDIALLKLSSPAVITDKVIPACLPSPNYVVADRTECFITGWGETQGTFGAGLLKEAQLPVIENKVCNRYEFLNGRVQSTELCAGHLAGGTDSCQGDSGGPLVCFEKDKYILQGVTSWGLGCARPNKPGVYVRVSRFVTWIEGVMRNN
# T2 sequence (P00747 97-580 partner limits assumed, species assumed): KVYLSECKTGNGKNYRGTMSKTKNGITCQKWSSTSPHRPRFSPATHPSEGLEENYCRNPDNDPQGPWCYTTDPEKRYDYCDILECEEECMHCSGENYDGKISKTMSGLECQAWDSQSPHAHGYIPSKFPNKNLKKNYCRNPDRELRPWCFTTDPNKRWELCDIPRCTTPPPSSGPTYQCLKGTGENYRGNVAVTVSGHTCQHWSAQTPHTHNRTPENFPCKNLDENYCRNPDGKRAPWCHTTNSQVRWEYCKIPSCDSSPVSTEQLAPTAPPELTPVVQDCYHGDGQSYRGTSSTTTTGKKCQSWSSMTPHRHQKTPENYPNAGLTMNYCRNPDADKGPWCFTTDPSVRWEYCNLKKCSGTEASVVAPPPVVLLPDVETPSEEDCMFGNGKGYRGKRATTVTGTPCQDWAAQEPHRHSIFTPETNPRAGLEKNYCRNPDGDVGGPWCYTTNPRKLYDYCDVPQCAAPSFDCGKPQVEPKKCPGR
# Method: as §1, §2, §3
# [3] = biological target: T3, thrombin (Homo sapiens, UniProt P00734); test: Peptidase (amidolytic) activity of purified thrombin, chromogenic substrate, OD 405 nm; assay type: biochemical; conditions: for Cleavage of the substrate by thrombin, in words: enzyme 10 nM, 37° C., 15 min (FIG. 7)
# T3 construct: purchased Calbiochem-Novabiochem Corp (La Jolla, Calif.)
# [4] = biological target: T4, plasma kallikrein (Homo sapiens, UniProt P03952); test: Peptidase (amidolytic) activity of purified plasma kallikrein, chromogenic substrate, OD 405 nm; assay type: biochemical; conditions: for Cleavage of the substrate by plasma kallikrein, in words: enzyme 10 nM, 37° C., 15 min (FIG. 7)
# T4 construct: The light chain of kallikrein contains the enzymatic domain; purchased Calbiochem-Novabiochem Corp (La Jolla, Calif.)
# T4 sequence (P03952 391-638 limits assumed): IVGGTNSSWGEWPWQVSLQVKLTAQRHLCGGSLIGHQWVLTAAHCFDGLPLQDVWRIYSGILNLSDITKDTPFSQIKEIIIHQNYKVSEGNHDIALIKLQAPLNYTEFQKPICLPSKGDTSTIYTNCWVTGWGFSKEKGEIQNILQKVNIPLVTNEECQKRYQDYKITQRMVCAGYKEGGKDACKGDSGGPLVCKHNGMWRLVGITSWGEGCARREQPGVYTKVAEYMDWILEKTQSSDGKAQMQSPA
# T4 sequence (P03952 20-390 partner limits assumed): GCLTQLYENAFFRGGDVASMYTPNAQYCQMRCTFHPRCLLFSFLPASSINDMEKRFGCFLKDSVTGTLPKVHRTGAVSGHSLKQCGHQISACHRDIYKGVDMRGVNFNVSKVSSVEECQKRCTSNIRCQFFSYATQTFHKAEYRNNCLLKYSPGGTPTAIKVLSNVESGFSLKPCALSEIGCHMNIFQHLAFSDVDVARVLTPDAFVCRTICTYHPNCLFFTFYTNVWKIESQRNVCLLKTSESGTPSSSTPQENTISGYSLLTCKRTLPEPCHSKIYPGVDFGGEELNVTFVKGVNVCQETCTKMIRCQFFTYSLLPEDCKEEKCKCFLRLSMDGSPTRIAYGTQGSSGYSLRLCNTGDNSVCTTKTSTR
# Method: as §1
# (§4) […] EDTA plasma samples from LTR were diluted 10 or 20-fold with TBS-EDTA. The chromogenic substrate AGLTR-pNA was used for all enzymes and LTR samples except C1s where the substrate S2288 was used. Based on the initial rate of increase in OD at 405 nm, the residual free enzyme level was calculated and expressed as a percentage of total activity without inhibitor added.
# (§5) Ten-fold diluted normal EDTA plasma was added to each enzyme. […] LTR samples were 10 or 20-fold diluted with TBS-EDTA. The chromogenic substrate AGLTR-pNA was used for all enzymes and LTP samples except C1s where the substrate S2288 was used. Based on the initial rate of increase in OD at 405 nm, the residual free enzyme was calculated and expressed as a percentage of total activity determined without inhibitor added.
# [5] = biological target: T5, β-Factor XIIa (β-FXIIa) (Homo sapiens, UniProt P00748); test: Peptidase (amidolytic) activity of purified β-FXIIa, chromogenic substrate, OD 405 nm; assay type: biochemical; conditions: for Cleavage of the substrate by β-FXIIa, in words: enzyme 10 nM, 37° C., 15 min (FIG. 7)
# T5 construct: β-Factor XIIa (β-FXIIa) was kindly provided by Dr. Mary J. Heeb; gift of Dr. Mary J. Heeb, The Scripps Research Institute
# T5 sequence (P00748 373-615 limits assumed, other chains not shown): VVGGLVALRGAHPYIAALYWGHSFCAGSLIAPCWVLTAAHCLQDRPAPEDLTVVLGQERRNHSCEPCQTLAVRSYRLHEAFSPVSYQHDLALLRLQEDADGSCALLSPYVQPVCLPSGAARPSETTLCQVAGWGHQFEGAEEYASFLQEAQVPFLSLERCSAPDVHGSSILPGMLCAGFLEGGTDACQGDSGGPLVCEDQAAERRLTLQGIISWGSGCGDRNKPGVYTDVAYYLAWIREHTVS
# Method: as §1, §4, §5
# [6] = system: trypsin; test: Peptidase (amidolytic) activity of purified trypsin, chromogenic substrate, OD 405 nm; assay type: biochemical; conditions: Table 2; trypsin 16 nM, substrate AGLTR-pNA; 60 min at 4° C. with LBTI 1 mg/ml, SBTI I mg/ml, aprotinin 0.075 mg/ml, benzamidine 50 mM or Futhan 0.1 mg/ml
# Method: as §1, §2
# [7] = system: proteinase(s) in EDTA plasma from LTR (kallikrein-like peptidase); test: Peptidase activity in EDTA plasma from liver transplant recipients (LTR), chromogenic substrate, OD 405 nm; assay type: biochemical, human; conditions: Table 2, substrate AGLTR-pNA, 60 min at 4° C. with LBTI 1 mg/ml, SBTI I mg/ml, aprotinin 0.075 mg/ml, benzamidine 50 mM or Futhan 0.1 mg/ml
# Method: Blood samples were drawn into 5 ml EDTA tubes (Venoject; Terumo Corp., Elkton, Md.). The plasma was collected immediately by centrifugation at 2,000×g for 15 min at 4° C. The plasma samples were either processed immediately for analysis or stored at −70° C. Frozen samples were thawed at 4° C. prior to analysis.
# as §1, §2, §3
# [8] = system: all of the enzymes examined; test: General serine proteinase inhibitors on selected proteinases (summary over the enzymes); assay type: biochemical; conditions: Table 2; benzamidine 50 mM, Futhan 0.1 mg/ml
# Method: as §1, §2
# [9] = system: tissue kallikrein; test: Peptidase activity of purified tissue kallikrein on chromogenic substrates; assay type: biochemical; conditions: enzyme 10 nM, 37° C., 15 min (FIG. 7)
# Method: as §1
# [10] = biological target: T1, C1s; test: Peptidase (amidolytic) activity of purified C1s, chromogenic substrate, 96-well plate, OD 405 nm; assay type: biochemical; conditions: enzyme 10 nM, 37° C., 15 min (FIG. 7)
# [11] = biological target: T2, plasmin; test: Peptidase (amidolytic) activity of purified plasmin, chromogenic substrate, OD 405 nm; assay type: biochemical; conditions: enzyme 10 nM, 37° C., 15 min (FIG. 7)
# [12] = system: trypsin; test: Peptidase (amidolytic) activity of purified trypsin, chromogenic substrate, OD 405 nm; assay type: biochemical; conditions: enzyme 10 nM, 37° C., 15 min (FIG. 7)
# [13] = system: proteinase(s) in EDTA plasma from LTR (kallikrein-like peptidase); test: Peptidase activity in EDTA plasma from liver transplant recipients (LTR), chromogenic substrate, OD 405 nm; assay type: biochemical, human; conditions: Sephacryl S-300 fractions of LTR plasma, 37° C. (FIG. 4)
Compound,"% Residual activity, C1s [1]","% Residual activity, Plasmin [2]","% Residual activity, Thrombin ([3]; Table 2, thrombin 100 nM, substrate AGLTR-pNA, 60 min at 4° C. with LBTI 1 mg/ml, SBTI I mg/ml, aprotinin 0.075 mg/ml, benzamidine 50 mM or Futhan 0.1 mg/ml)","% Residual activity, Plasma Kallikrein ([4]; Table 2, plasma kallikrein 20 nM, substrate AGLTR-pNA, 60 min at 4° C. with LBTI 1 mg/ml, SBTI I mg/ml, aprotinin 0.075 mg/ml, benzamidine 50 mM or Futhan 0.1 mg/ml)","% Residual activity, β-FXIIa ([5]; Table 2, β-FXIIa 100 nM, substrate AGLTR-pNA, 60 min at 4° C. with LBTI 1 mg/ml, SBTI I mg/ml, aprotinin 0.075 mg/ml, benzamidine 50 mM or Futhan 0.1 mg/ml)","% Residual activity, Trypsin [6]","% Residual activity, LTR 1 ([7]; LTR 1 EDTA plasma diluted 10 or 20-fold)","% Residual activity, LTR 2 ([7]; LTR 2 EDTA plasma diluted 10 or 20-fold)","% Residual activity, LTR 3 ([7]; LTR 3 EDTA plasma diluted 10 or 20-fold)","Inhibition of all of the enzymes examined, in words [8]","Cleavage of the substrate by thrombin, in words [3]","Cleavage of the substrate by plasma kallikrein, in words [4]","Cleavage of the substrate by β-FXIIa, in words [5]","Cleavage of the substrate by tissue kallikrein, in words [9]","Cleavage of the substrate by C1s, in words [10]","Cleavage of the substrate by plasmin, in words [11]","Cleavage of the substrate by trypsin, in words [12]","Rate of conversion of the substrate by gel filtered LTR plasma, relative to AGLTR-pNA, in words [13]"
"N=C(N)c1ccccc1 [Benzamidine, benzamidine]",6.6%,3.9%,1.6%,2.0%,10.9%,5.8%,0.5%,−0.3%,1.5%,very efficient inhibitors for all of the enzymes examined,,,,,,,,
Ac-Ala-Gly-Leu-Thr-Arg-p-nitroanilide (Ac-AGLTR-pNA; SMILES CC(=O)N[C@@H](C)C(=O)NCC(=O)N[C@@H](CC(C)C)C(=O)N[C@H](C(=O)N[C@@H](CCCNC(=N)N)C(=O)Nc1ccc([N+](=O)[O-])cc1)[C@@H](C)O),,,,,,,,,,,poorly cleaved,cleaved AGLTR-pNA relatively efficiently,almost no ability to cleave this substrate,almost no ability to cleave this substrate,almost no ability to cleave this substrate; also recorded: neither C1s nor any of the other proteinases efficiently cleaved this substrate,poorly cleaved,cleaved AGLTR-pNA relatively efficiently,
[dI]-Pro-Arg-pNA [S2288],,,,,,,,,,,cleaved substrate S2288 more efficiently than S2302; also recorded: preferred S2288 over either AGLTR-pNA or S2302,cleaved S2302 more rapidly than S2288,least active on these substrates,least active on these substrates,least active on these substrates,least active on these substrates,cleaved substrate S2288 more efficiently than S2302,somewhat greater than that using AGLTR-pNA
[dP]-Phe-Arg-pNA [S2302],,,,,,,,,,,cleaved substrate S2288 more efficiently than S2302,cleaved S2302 more rapidly than S2288,least active on these substrates,least active on these substrates,least active on these substrates,least active on these substrates,cleaved substrate S2288 more efficiently than S2302,somewhat greater than that using AGLTR-pNA
